Earlier results on one compound are cited in patent US20230062279A1, “PHARMACEUTICAL COMPOSITIONS OF BORTEZOMIB” (EXTROVIS AG, priority 2021, published 2023).

Where two headings read alike, the source gives them in different places.

Turning to `CC(C)C[C@H](NC(=O)[C@H](Cc1ccccc1)NC(=O)c1cnccn1)B(O)O` [bortezomib, [(1R)-3-methyl-1-[[(2S)-1-oxo-3-phenyl-2-[(pyrazinylcarbonyl)amino]propyl]amino]butyl] boronic acid], the degradation result runs as follows: (PEG 300:Ethanol:Water (40:10:50), 25° C., 24 hours) “about 20%”; (PG:Ethanol:Water, 25° C., 8 months) 20%; (ethanol and normal saline 2:98, pH 2.8, 25° C., 1 month) 20%.
